The results in this text go back to ChEMBL document CHEMBL2073767, “Novel membrane transporter OCTN1 mediates multispecific, bidirectional, and pH-dependent transport of organic cations” (J Pharmacol Exp Ther, 1999).

Series [1] deals with T1, Solute carrier family 22 member 4 (Homo sapiens, UniProt Q9H015).
T1 sequence (Q9H015 whole entry): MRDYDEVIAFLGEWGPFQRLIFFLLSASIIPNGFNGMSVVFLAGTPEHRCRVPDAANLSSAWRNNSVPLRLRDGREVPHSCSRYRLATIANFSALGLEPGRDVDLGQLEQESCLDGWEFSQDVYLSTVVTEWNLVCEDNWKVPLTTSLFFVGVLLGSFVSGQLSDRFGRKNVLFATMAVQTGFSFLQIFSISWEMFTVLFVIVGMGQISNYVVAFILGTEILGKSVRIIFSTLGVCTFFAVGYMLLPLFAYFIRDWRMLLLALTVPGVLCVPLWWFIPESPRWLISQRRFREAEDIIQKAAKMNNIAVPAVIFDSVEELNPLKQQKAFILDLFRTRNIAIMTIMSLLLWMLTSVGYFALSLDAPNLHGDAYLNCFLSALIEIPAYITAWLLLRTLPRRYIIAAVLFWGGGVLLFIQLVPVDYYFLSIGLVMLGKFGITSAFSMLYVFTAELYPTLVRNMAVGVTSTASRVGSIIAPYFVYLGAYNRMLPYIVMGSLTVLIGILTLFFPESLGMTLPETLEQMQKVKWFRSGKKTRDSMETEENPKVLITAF
In words: TP_TRANSPORTER: uptake in Xenopus laevis oocytes. The conditions noted are these: oocyte. The format is functional, cell-based.

Series [2] deals with T1, Solute carrier family 22 member 4. In words: TP_TRANSPORTER: inhibition of TEA uptake (TEA: 60 uM, Verapamil: 1000 uM) in Xenopus laevis oocytes. The format is functional, cell-based, Oocyte. The conditions noted are these: probe TEA, read-out: Activity. Further details: scale not given: the % may be the effect or the level left.
For series [3] the target is unchanged. In words: TP_TRANSPORTER: inhibition of TEA uptake (TEA: 60 uM, PAH: 5000 uM) in Xenopus laevis oocytes. The class given is functional, cell-based. To be noted: oocyte.
The target is the same in series [4]. Briefly: TP_TRANSPORTER: inhibition of TEA uptake (TEA: 60 uM, Arginine: 5000 uM) in OCTN1-expressing HEK293 cells. The class given is functional, cell-based. To be noted: hek293, 5000 µM.
Series [5] shares this target. In words: TP_TRANSPORTER: inhibition of TEA uptake (TEA: 60 uM, L-Carnitine: 1000 uM) in Xenopus laevis oocytes. The format is functional, cell-based, Oocyte. More on the design: scale not given: the % may be the effect or the level left. The conditions noted are these: probe TEA, read-out: Activity.
Series [6] shares this target. In words: TP_TRANSPORTER: inhibition of TEA uptake (TEA: 60 uM, CER: 1000 uM) in Xenopus laevis oocytes. The format is functional, cell-based, Oocyte. To be noted: probe TEA, read-out: Activity. Further details: scale not given: the % may be the effect or the level left.
For series [7] the target is unchanged. Briefly: in vitro. The conditions noted are these: xenopus laevis, Xenopus laevis oocytes, probe TEA.
The target is the same in series [8]. Briefly: in vitro. To be noted: xenopus laevis, Xenopus laevis oocytes, probe TEA. The source holds these as a separate data set.
The target is the same in series [9]. In words: TP_TRANSPORTER: inhibition of TEA uptake (TEA: 60 uM, D-Carnitine: 1000 uM) in Xenopus laevis oocytes. The conditions noted are these: probe TEA, read-out: Activity. More on the design: scale not given: the % may be the effect or the level left. The format is functional, cell-based, Oocyte.
For series [10] the target is unchanged. Briefly: TP_TRANSPORTER: inhibition of TEA uptake (TEA: 60 uM, Guanidine: 5000 uM) in Xenopus laevis oocytes. The format is functional, cell-based, Oocyte. Further details: scale not given: the % may be the effect or the level left. To be noted: probe TEA, read-out: Activity.
Series [11] has the same target. Briefly: TP_TRANSPORTER: inhibition of TEA uptake (TEA: 60 uM, Levofloxacin: 1000 uM) in Xenopus laevis oocytes. The format is functional, cell-based. Further details: scale not given: the % may be the effect or the level left. The conditions noted are these: oocyte.
For series [12] the target is unchanged. Briefly: TP_TRANSPORTER: inhibition of TEA uptake (TEA: 60 uM, Lysine: 5000 uM) in Xenopus laevis oocytes. The format is functional, cell-based. The conditions noted are these: oocyte.
The target is the same in series [13]. Briefly: in vitro. To be noted: xenopus laevis, Xenopus laevis oocytes, probe TEA. This is another data set of the same source.
For series [14] the target is unchanged. In words: TP_TRANSPORTER: inhibition of TEA uptake (TEA: 60 uM, NMN: 5000 uM) in Xenopus laevis oocytes. To be noted: oocyte. The class given is functional, cell-based.
Series [15] has the same target. Briefly: TP_TRANSPORTER: inhibition of TEA uptake (TEA: 60 uM, OFLX: 1000 uM) in Xenopus laevis oocytes. The format is functional, cell-based, Oocyte. Further details: scale not given: the % may be the effect or the level left. To be noted: probe TEA, read-out: Activity.
Series [16] has the same target. In words: TP_TRANSPORTER: inhibition of TEA uptake (TEA: 60 uM, PCG: 5000 uM) in Xenopus laevis oocytes. The format is functional, cell-based. The conditions noted are these: oocyte.
Series [17] shares this target. Briefly: TP_TRANSPORTER: inhibition of TEA uptake (TEA: 60 uM, Procainamide: 1000 uM) in Xenopus laevis oocytes. The format is functional, cell-based, Oocyte. Further details: scale not given: the % may be the effect or the level left. To be noted: probe TEA, read-out: Activity.
The target is the same in series [18]. In words: TP_TRANSPORTER: inhibition of TEA uptake (TEA: 60 uM, Pyrilamine: 1000 uM) in Xenopus laevis oocytes. Further details: scale not given: the % may be the effect or the level left. The format is functional, cell-based, Oocyte. The conditions noted are these: probe TEA, read-out: Activity.
For series [19] the target is unchanged. In words: TP_TRANSPORTER: inhibition of TEA uptake (TEA: 60 uM, Quinidine: 1000 uM) in Xenopus laevis oocytes. The conditions noted are these: probe TEA, read-out: Activity. The class given is functional, cell-based, Oocyte. More on the design: scale not given: the % may be the effect or the level left.
Series [20] has the same target. In words: TP_TRANSPORTER: inhibition of TEA uptake (TEA: 60 uM, Quinine: 1000 uM) in Xenopus laevis oocytes. Further details: scale not given: the % may be the effect or the level left. The format is functional, cell-based. To be noted: oocyte.
Series [21] shares this target. In words: TP_TRANSPORTER: inhibition of TEA uptake (TEA: 60 uM, Spermidine: 5000 uM) in Xenopus laevis oocytes. The conditions noted are these: oocyte. The class given is functional, cell-based.
Substrate in series [22]: CC[N+](CC)(CC)CC
Briefly: cells, lysate or membranes named.

In the case of `COc1ccc(CCN(C)CCCC(C#N)(c2ccc(OC)c(OC)c2)C(C)C)cc1OC` (stereo unspecified), in series [1], the Activity result was “substrate [+]”. For the same molecule, in series [2], the activity at 1000 µM amounted to 8.8%.

In the case of `Nc1ccc(C(=O)NCC(=O)O)cc1` [AMINOHIPPURIC ACID], the Activity entry in series [3] was “is not an inhibitor [-]”.

In the case of `N=C(N)NCCC[C@H](N)C(=O)O` [ARGININE], the Activity result in [4] was “is not an inhibitor [-]”.

As to `C[N+](C)(C)CC(O)CC(=O)[O-]` (stereo unspecified) [CARNITINE], the Activity entry in series [1] was “substrate [+]”. Also, in series [5], the activity at 1000 µM was 32.5%.

For the molecule `O=C(Cc1cccs1)N[C@@H]1C(=O)N2C(C(=O)[O-])=C(C[n+]3ccccc3)CS[C@H]12` [CEPHALORIDINE], in [6], the activity at 1000 µM stood at 35.7%.

`C[N+](C)(C)CCO` [CHOLINE]: the activity at 5000 µM in [7] was determined as 73.2%.

`Clc1cccc(Cl)c1N=C1NCCN1` [CLONIDINE]: the activity at 1000 µM in [8] was 70.9%.

`C[N+](C)(C)C[C@@H](O)CC(=O)[O-]` [D-CARNITINE]: the activity at 1000 µM in [9] turned out to be 53.9%.

`N=C(N)N` [GUANIDINE]: the activity at 5000 µM in series [10] is 89.6%.

In the case of `C[C@H]1COc2c(N3CCN(C)CC3)c(F)cc3c(=O)c(C(=O)O)cn1c23.C[C@H]1COc2c(N3CCN(C)CC3)c(F)cc3c(=O)c(C(=O)O)cn1c23.O` [LEVOFLOXACIN], the Activity in series [11] is 63.6%.

Regarding `NCCCC[C@H](N)C(=O)O` [LYSINE], in [12], the Activity entry is “is not an inhibitor [-]”.

As for `CN1CCC[C@H]1c1cccnc1` [NICOTINE], in series [13], the activity at 1000 µM was 71.6%.

Regarding `CNC(=O)c1cccnc1` [NICOTINYL METHYLAMIDE], in [14], the Activity result was “is not an inhibitor [-]”.

Consider `CC1COc2c(N3CCN(C)CC3)c(F)cc3c(=O)c(C(=O)O)cn1c23` (stereo unspecified) [OFLOXACIN], for which the activity at 1000 µM in series [15] turned out to be 61.4%.

As for `CC1(C)S[C@@H]2[C@H](NC(=O)Cc3ccccc3)C(=O)N2[C@H]1C(=O)O` [PENICILLIN G], the Activity entry in series [1] is “is not a substrate [-]”; in series [16], “is not an inhibitor [-]”.

`CCN(CC)CCNC(=O)c1ccc(N)cc1` [PROCAINAMIDE]: the activity at 1000 µM in series [17] was determined as 15.6%.

As for `COc1ccc(CN(CCN(C)C)c2ccccn2)cc1` [PYRILAMINE], in series [1], the Activity result was “substrate [+]”. Also, the activity at 1000 µM in series [18] was determined as 0%.

With `C=C[C@H]1C[N@@]2CC[C@H]1C[C@@H]2[C@@H](O)c1ccnc2ccc(OC)cc12` [QUINIDINE], in series [1], the Activity entry was “substrate [+]”. Moreover, the activity at 1000 µM in [19] came out at 15.2%.

In series [20], `C=C[C@H]1C[N@@]2CC[C@H]1C[C@H]2[C@H](O)c1ccnc2ccc(OC)cc12` [QUININE] had an Activity of 24.6%.

Consider `NCCCCNCCCN` [SPERMIDINE], for which the Activity entry in [21] was “is not an inhibitor [-]”.

B1: Solute carrier family 22 member 4 (Homo sapiens) (protein)
chain: MRDYDEVIAFLGEWGPFQRLIFFLLSASIIPNGFNGMSVVFLAGTPEHRCRVPDAANLSSAWRNNSVPLRLRDGREVPHSCSRYRLATIANFSALGLEPGRDVDLGQLEQESCLDGWEFSQDVYLSTVVTEWNLVCEDNWKVPLTTSLFFVGVLLGSFVSGQLSDRFGRKNVLFATMAVQTGFSFLQIFSISWEMFTVLFVIVGMGQISNYVVAFILGTEILGKSVRIIFSTLGVCTFFAVGYMLLPLFAYFIRDWRMLLLALTVPGVLCVPLWWFIPESPRWLISQRRFREAEDIIQKAAKMNNIAVPAVIFDSVEELNPLKQQKAFILDLFRTRNIAIMTIMSLLLWMLTSVGYFALSLDAPNLHGDAYLNCFLSALIEIPAYITAWLLLRTLPRRYIIAAVLFWGGGVLLFIQLVPVDYYFLSIGLVMLGKFGITSAFSMLYVFTAELYPTLVRNMAVGVTSTASRVGSIIAPYFVYLGAYNRMLPYIVMGSLTVLIGILTLFFPESLGMTLPETLEQMQKVKWFRSGKKTRDSMETEENPKVLITAF
For orientation: Km means the concentration of substrate that gives half-maximal velocity. For B1, the Km in series [22] was determined as 436 µM.
